According to US20070269793A1, “Bioactive Boxes for Cellular Cultures” (priority 2003, published 2007):

Experiments:
Type in all cases: cell-based, murine
[1] = test system: B16 F0 and B16 F10 lines; assay: Proliferation, cell count (Malassez hemocytometer); conditions: B16 F0 and F10 on PS in the presence of MSH 10^−7 M (same in its absence)
Procedure: (§1) The cells are cultured in medium supplemented by 10% foetal calf serum, 1% L-Glutamine and 0.5% antibiotics (penicillin, streptomycin).
(§2) —b—proliferation: 10,000 cells are seeded per cm^2. The cells are counted (Malassez hemocytometer) after culture for 24 and 48 hours.
(§3) It should be noted that the B16 F0 and B16 F10 lines proliferate more on cellulose that the B16 C3 line, which is non-metastatic. The number of B16 F0 and F10 cells is multiplied by 3 on cellulose. It is multiplied by 6 on PS, in the presence or absence of MSH 10^−7 M melanin-stimulating hormone used as a second control.

[2] = test system: B16 C3 line; assay: Proliferation, cell count (Malassez hemocytometer); conditions: B16 C3 on PS in the presence of MSH (same in its absence), 48 hours
Procedure: as §1, §2, §3

[3] = test system: Fn; assay: Fn synthesis (indirect immunolabelling); conditions: three melanoma lines cultured on PS with MSH
[4] = test system: B16 melanoma cells; assay: Calcium dependence of cell aggregation; conditions: absence of Ca^++; 3 lines, after 1 and 3 hours

Substance	number of cells multiplied by [1]	number of cells multiplied by [2]	Fn synthesis [3]	percentage of cells isolated [4]
melanin-stimulating hormone [MSH]	6	2	increase in Fn synthesis	
monencin				very significantly increased
